Patent US12139717B2, “Improving plant regeneration” (KWS SAAT SE & Co. KGaA, priority 2019, dated 2024)
Entries after “also recorded” stand apart in the source; their conditions may differ.

Experiments:
sugar beet leaf explants = assay: Sugar beet callus induction from leaf explants in callus induction medium; format: cell-based; design: key to Callus induction effect: −: no callus induction effect; +: modest callus induction effect; ++: strong callus induction effect; details: for callus induction in recalcitrant genotype A (FIG. 3): DMSO control
Procedure: 1. Micropropagated shoots of various proprietary genotypes were used as starting material: Genotypes A and B are recalcitrant to callus induction and plant regeneration. […] Therefore, such calli were never transformable.
Genotype C is less recalcitrant. Shoots were multiplied in MS salts+30 g/l sucrose and 0.25 mg/l benzyladenine (BAP).
2. To induce friable callus, leaf explants were isolated from micropropagated shoots and incubated in callus induction medium (CIM) containing MS salts including 15 g/I sucrose and 2 mg/l BAP at 28° C. for 7 to 8 weeks. […] HP is Hyperphyllin, a small molecule with the chemical formula N-[4-Amino-2-chlorophenyl]-2,4-dichlorobenzamide (CAS #: 42480-64-8).
After incubation period the induction and formation of callus has been analysed. […] There is no significant difference in induction efficiency between these two concentrations.

Arabidopsis thaliana = details: Poretska et al. 2016; cited from earlier work
sugar beet friable calli = assay: Sugar beet shoot induction and plant regeneration from induced calli; format: cell-based; details: calli induced with vs without HP
Procedure: 3. Friable calli of step 2 were harvested from the induction and transferred to the shoot induction medium containing MS salts, 30 g/l sucrose, 1 mg/l GA3 and 1 mg/l Thidiazuron (TDZ). The calli were incubated at 24° C. in the light/dark cycle (16 h/8 h) for 1 to 2 weeks. 4. Regenerated shoots were mounted and cultured in the medium of step 1. The plants are grown at 24° C. in the light/dark cycle (16 h/8 h).

sugar beet callus = assay: Agrobacteria-mediated transformation of HP induced sugar beet callus; format: cell-based; details: recalcitrant genotype; 70s::tDT construct; seven days after infection
Procedure: a. Sugar beet calli were induced as described in steps 1 and 2.
b. Friable calli were mounted in medium containing MS salts, 30 g/l sucrose, 1 mg/l GA3 and 1 mg/l Thidiazuron (TDZ), and kept for 1 week in the dark, 24° C.
c. Agrobacterium AGL-1 harbouring the vector pZFN-nptII-70s::AtGRF5 and pZFN-nptII-70s::tDT was grown in medium (5 g/l tryptone+2.5 g/l yeast extract+1 g/l NaCl+5 g/l mannitol+0.1 g/l MgSO4×7H2O+0.25 g/l KH2PO4+1 g/l glutamic acid, pH 7.0) supplemented with the appropriate antibiotics, at 28° C., for 24 h.
d. Calli were inoculated with Agrobacterium suspension (medium: 440 mg/l CaCl2×2H2O+170 mg/l KH2PO4+1.9 g/l KNO3+180.7 mg/l MgSO4+1.65 g/l NH4NO3+2 mg/l BAP+40 μg/l Acetosyringone+20 g/l sucrose+2 g/l glucose, pH 6.0) at an OD600 of 0.8. The callus tissue and the Agrobacterium were incubated in medium comprising 440 mg/l CaCl2×2H2O, 170 mg/l KH2PO4, 1.9 g/l KNO3, 180.7 mg/l MgSO4, 1.65 g/l NH4NO3, 2 mg/l BAP, 40 μg/l Acetosyringone, 20 g/l sucrose and 2 g/l glucose, at 21° C. for 3 days in the dark.
e. Calli were sub-cultured to medium comprising MS salts, 30 g/l sucrose, 1 mg/l GA3, 1 mg/l TDZ and 500 mg/l Timentin, and incubated in the dark, at 24° C. for 1 week.
f. […]

O=C(Nc1c(F)cccc1F)c1ccc(Cl)cc1 [HP derivate A1]
callus inducing effect (in words) (sugar beet leaf explants; 30 μM): worked
Callus induction effect (sugar beet leaf explants; 30 μM dissolved in 2 ml/L DMSO): +
Callus induction effect (sugar beet leaf explants; 50 μM dissolved in 2 ml/L DMSO): −
leaf formation rate (Arabidopsis thaliana): enhance leaf formation rate

O=C(Nc1ccccc1)c1c(F)cccc1Cl [HP derivate A2]
callus inducing effect (in words) (sugar beet leaf explants; 30 μM): strong callus-inducing effect
Callus induction effect (sugar beet leaf explants; 30 μM dissolved in 2 ml/L DMSO): ++
callus inducing effect (in words) (sugar beet leaf explants; 50 μM): weak effect
callus induction in recalcitrant genotype (FIG. 9) (sugar beet leaf explants; 50 μM as printed in legend, control without HP treatment): promotes callus induction
Callus induction effect (sugar beet leaf explants; 50 μM dissolved in 2 ml/L DMSO): +
leaf formation rate (Arabidopsis thaliana): enhance leaf formation rate

O=C(Nc1ccccc1)c1ccccc1Cl [HP derivate A3]
leaf formation rate (Arabidopsis thaliana): enhance leaf formation rate

Nc1ccc(NC(=O)c2ccc(Cl)cc2Cl)c(Cl)c1 [HP, N-[4-Amino-2-chlorophenyl]-2,4-dichlorobenzamide]
callus inducing effect (in words) (sugar beet leaf explants; 10 μM): modest effect
Callus induction effect (sugar beet leaf explants; 10 μM dissolved in 2 ml/L DMSO): +
callus inducing effect (in words) (sugar beet leaf explants; 30 μM): strong callus inducing effect
Callus induction effect (sugar beet leaf explants; 30 μM dissolved in 2 ml/L DMSO): ++
amount of callus tissue induced from leaves (FIG. 5) (sugar beet leaf explants; 30 μM vs control without HP): much more amount of callus tissue
callus induction in recalcitrant genotype A (FIG. 3) (sugar beet leaf explants; 30 μM): dramatically promotes callus induction; also recorded: promotes callus formation
callus inducing effect (in words) (sugar beet leaf explants; 50 μM): strong callus inducing effect
Callus induction effect (sugar beet leaf explants; 50 μM dissolved in 2 ml/L DMSO): ++
callus induction in recalcitrant genotype A (FIG. 3) (sugar beet leaf explants; 50 μM): promotes callus formation
callus inducing effect (in words) (sugar beet leaf explants; 100 μM): modest effect
Callus induction effect (sugar beet leaf explants; 100 μM dissolved in 2 ml/L DMSO): +
Callus induction effect (sugar beet leaf explants; 500 μM dissolved in 2 ml/L DMSO): −
Callus induction effect (sugar beet leaf explants; 1 mM dissolved in 2 ml/L DMSO): −
callus inducing effect (in words) (sugar beet leaf explants; higher concentration (500 μM, 1 mM)): no effect
callus induction efficiency with vs without HP (FIG. 4) (sugar beet leaf explants; recalcitrant genotypes A and B): boosting effect
plants regenerated from induced callus (FIG. 6) (sugar beet friable calli): More plants could be regenerated
Agrobacterium infection of HP induced callus (FIG. 7) (sugar beet callus): can be infected by agrobacteria
leaf formation rate (Arabidopsis thaliana): enhance leaf formation rate
